Results as given in paper PMC12396409, “Screening and hit evaluation of a microbial metabolite library against the pathogenic Plasmodium falciparum and Toxoplasma gondii parasites” (International Journal for Parasitology: Drugs and Drug …, 2025).
Like-named read-outs stand apart in the source and are kept apart here.

Key:
[1] = test system: P. falciparum 3D7 parasites; test: P. falciparum growth inhibition assay, 1-cycle (72 h treatment), SYBR DNA staining (library screen at 2 μg/mL and dose-response); format: cell-based, Plasmodium falciparum; conditions: for activity at 2 µg/mL: Plasmodium falciparum, 3D7
[2] = test system: P. falciparum 3D7 parasites; test: P. falciparum growth inhibition assay, 2-cycle (120 h treatment), delayed-death screen and dose-response; format: cell-based, Plasmodium falciparum; conditions: for activity at 2 µg/mL: Plasmodium falciparum, 3D7
[3] = test system: T. gondii RH strain (RH-Tub-eYFP) tachyzoites; test: microbe, parasite or virus in culture; format: cell-based, Toxoplasma gondii; conditions: 72 h; for percent parasite growth at 2 µg/mL: Toxoplasma gondii
[4] = P. falciparum 3D7, 72 h, parasite screen at 2 μg/mL, % growth, replicate 1
[5] = P. falciparum 3D7, 72 h, parasite screen at 2 μg/mL, % growth, replicate 2
[6] = P. falciparum 3D7, 120 h, parasite screen at 2 μg/mL, % growth, replicate 1
[7] = T. gondii, parasite screen at 2 μg/mL, % growth, replicate 1
[8] = T. gondii, parasite screen at 2 μg/mL, % growth, replicate 2
[9] = P. falciparum, 72 h, screen at 2 μg/mL, replicate 1, read-out: Pf_72h_%Growth_Rep1
[10] = P. falciparum, 72 h, screen at 2 μg/mL, replicate 2, read-out: Pf_72h_%Growth_Rep2
[11] = P. falciparum, 120 h, screen at 2 μg/mL, replicate 1, read-out: Pf_120h_%Growth_Rep1
[12] = P. falciparum, 120 h, screen at 2 μg/mL, replicate 2, read-out: Pf_120h_%Growth_Rep2
[13] = T. gondii, screen at 2 μg/mL, replicate 1, read-out: Tg_72h_%Growth_Rep1
[14] = T. gondii, screen at 2 μg/mL, replicate 2, read-out: Tg_72h_%Growth_Rep2
[15] = P. falciparum, 72 h, screen at 2 μg/mL, replicate 1
[16] = P. falciparum, 72 h, screen at 2 μg/mL, replicate 2
[17] = P. falciparum, 120 h, screen at 2 μg/mL, replicate 1
[18] = P. falciparum, 120 h, screen at 2 μg/mL, replicate 2
[19] = T. gondii, screen at 2 μg/mL, replicate 1
[20] = T. gondii, screen at 2 μg/mL, replicate 2
[21] = library screen at 2 μg/mL, 72 h, % growth, replicate 1
[22] = library screen at 2 μg/mL, 72 h, % growth, replicate 2
[23] = library screen at 2 μg/mL, 120 h, % growth, replicate 1
[24] = library screen at 2 μg/mL, 120 h, % growth, replicate 2
[25] = library screen at 2 μg/mL, % growth, replicate 1
[26] = library screen at 2 μg/mL, % growth, replicate 2

CCCCCCC(=O)CCCCCC/C=C/C[C@@H](O)[C@H](O)[C@@](N)(CO)C(=O)O [BIA-M1219]
Pf_72h_%Growth_Rep1 [1, 4]: 77.20%
Pf_72h_%Growth_Rep2 [1, 5]: 44.93%
Pf_120h_%Growth_Rep1 [2, 6]: 68.80%
Pf_120h_%Growth_Rep2 ([2]; P. falciparum 3D7, 120 h, parasite screen at 2 μg/mL, % growth, replicate 2): 36.84%
Tg_72h_%Growth_Rep1 [3, 7]: 113.89%
Tg_72h_%Growth_Rep2 [3, 8]: 86.95%

O=c1[nH]c2ccccc2c(-c2ccccc2)c1O [Viridicatin]
activity at 2 µg/mL [1, 9]: 91.8%
activity at 2 µg/mL [1, 10]: 125%
activity at 2 µg/mL [2, 11]: 106%
activity at 2 µg/mL [2, 12]: 104%
percent parasite growth at 2 µg/mL [3, 13]: 145%
percent parasite growth at 2 µg/mL [3, 14]: 80.5%

Cinnamycin
Pf_72h_%Growth_Rep1 [1, 15]: 85.92%
Pf_72h_%Growth_Rep2 [1, 16]: 85.03%
Pf_120h_%Growth_Rep1 [2, 17]: 137.57%
Pf_120h_%Growth_Rep2 [2, 18]: 92.38%
Tg_72h_%Growth_Rep1 [3, 19]: 85.83%
Tg_72h_%Growth_Rep2 [3, 20]: 93.54%

COc1ccc2[nH]c3c(C)c4ccncc4c(C)c3c2c1 [BIA-M1952]
Pf_72h_%Growth_Rep1 [1, 4]: 9.89%
Pf_72h_%Growth_Rep2 [1, 5]: -0.96%
Pf_120h_%Growth_Rep2 [2]: -1.49%
Pf_120h_%Growth_Rep1 [2, 6]: 10.32%
Tg_72h_%Growth_Rep1 [3, 7]: 3.28%
Tg_72h_%Growth_Rep2 [3, 8]: 1.49%

O=C(O)[C@H]1/C(=C/CO)O[C@@H]2CC(=O)N21 [Clavulanate potassium]
activity at 2 µg/mL [1, 9]: 85.1%
activity at 2 µg/mL [1, 10]: 88.1%
activity at 2 µg/mL [2, 11]: 88.4%
activity at 2 µg/mL [2, 12]: 86.6%
percent parasite growth at 2 µg/mL [3, 13]: 102%
percent parasite growth at 2 µg/mL [3, 14]: 102%

CO[C@H]1C[C@@H]2CC[C@@H](C)[C@@](O)(O2)C(=O)C(=O)N2CCCC[C@H]2C(=O)O[C@H]([C@H](C)C[C@@H]2CC[C@@H](OC(=O)C(C)(CO)CO)[C@H](OC)C2)CC(=O)[C@H](C)/C=C(\C)[C@@H](O)[C@@H](OC)C(=O)[C@H](C)C[C@H](C)/C=C/C=C/C=C/1C [Temsirolimus]
activity at 2 µg/mL [1, 9]: 59.1%
activity at 2 µg/mL [1, 10]: 47.4%
activity at 2 µg/mL [2, 11]: 61.2%
activity at 2 µg/mL [2, 12]: 46.5%
percent parasite growth at 2 µg/mL [3, 13]: 97%
percent parasite growth at 2 µg/mL [3, 14]: 76.6%

CCCC1CC(C(=O)NC(C(C)O)C2OC(SC)C(O)C(O)C2O)N(C)C1 (stereo not drawn) [BIA-L1457]
Pf_72h_%Growth_Rep1 ([1]; P. falciparum 3D7, 72 h, library screen at 2 μg/mL, % growth, replicate 1): 49.27%
Pf_72h_%Growth_Rep2 ([1]; P. falciparum 3D7, 72 h, library screen at 2 μg/mL, % growth, replicate 2): 59.50%
Pf_120h_%Growth_Rep1 ([2]; P. falciparum 3D7, 120 h, library screen at 2 μg/mL, % growth, replicate 1): 9.59%
Pf_120h_%Growth_Rep2 ([2]; P. falciparum 3D7, 120 h, library screen at 2 μg/mL, % growth, replicate 2): 18.68%
Tg_72h_%Growth_Rep1 ([3]; T. gondii RH, library screen at 2 μg/mL, % growth, replicate 1): 26.67%
Tg_72h_%Growth_Rep2 ([3]; T. gondii RH, library screen at 2 μg/mL, % growth, replicate 2): 42.80%

CC(=O)NCCc1cnc[nH]1 [Acetylhistamine, N-]
Pf_72h_%Growth_Rep1 [1, 21]: 82.83%
Pf_72h_%Growth_Rep2 [1, 22]: 91.72%
Pf_120h_%Growth_Rep1 [2, 23]: 90.99%
Pf_120h_%Growth_Rep2 [2, 24]: 93.21%
Tg_72h_%Growth_Rep1 [3, 25]: 95.97%
Tg_72h_%Growth_Rep2 [3, 26]: 105.85%

CC(=O)OC[C@]12[C@H](O)C(=O)C(C)=C[C@H]1O[C@@H]1[C@H](O)C[C@@]2(C)[C@]12CO2 [Acetyldeoxynivalenol, 15-]
Pf_72h_%Growth_Rep1 [1, 21]: 5.76%
Pf_72h_%Growth_Rep2 [1, 22]: -0.64%
Pf_120h_%Growth_Rep1 [2, 23]: 6.22%
Pf_120h_%Growth_Rep2 [2, 24]: 4.98%
Tg_72h_%Growth_Rep1 [3, 25]: -2.45%
Tg_72h_%Growth_Rep2 [3, 26]: -0.58%

CC[C@H]1OC(=O)[C@H](C)[C@@H](O[C@H]2C[C@@](C)(OC)[C@@H](O)[C@H](C)O2)[C@H](C)[C@@H](O[C@@H]2O[C@H](C)C[C@H](N(C)C)[C@H]2O)[C@](C)(O)C[C@@H](C)C(=O)[C@H](C)[C@H]2OC(=O)O[C@@]21C [Davercin, reference compound]
1) Growth (%) at 72 h ([1]; P. falciparum, 2 μg/mL, 72 h): 62.94%
Pf_72h_%Growth_Rep1 [1, 15]: 70.33%
Pf_72h_%Growth_Rep2 [1, 16]: 55.54%
2) Growth (%) at 120 h ([2]; P. falciparum, 2 μg/mL, 120 h): 13.05%
Pf_120h_%Growth_Rep1 [2, 17]: 17.41%
Pf_120h_%Growth_Rep2 [2, 18]: 8.68%
3) Fold change (72 h/120 h) ([2]; P. falciparum, growth at 72 h / growth at 120 h, 2 μg/mL): 4.8
Tg_72h_%Growth_Rep1 [3, 19]: 45.64%
Tg_72h_%Growth_Rep2 [3, 20]: 28.61%
